According to patent publication US6737383B1, “Herbicidal oxadiazolidines” (priority 1999, dated 2004):

Tests used:
[1] = tested on: duck salad; assay: Test B flood test duck salad; assay type: in vivo, Heteranthera limosa
Outline: (§1)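 Read-out is a visual response score from 0 (no effect) to 10 (complete control), assigned by comparison with untreated controls. Treatment was applied at the 2-leaf stage, and plants stayed in the greenhouse for twelve to sixteen days before scoring.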

[2] = tested on: surinam grass; assay: Test B pre/postemergence surinam grass; assay type: in vivo, Brachiaria decumbens
Outline: (§2)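 Response is a visual 0-to-10 score relative to untreated plants, where 0 means no effect and 10 means complete control, taken twelve to sixteen days after application. Treatments went onto soil at planting and onto foliage of 1- to 4-leaf plants, using a surfactant-containing non-phytotoxic solvent.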

[3] = tested on: soybean; assay: Test B pre/postemergence soybean; assay type: in vivo, Glycine max
Outline: as §2

[4] = tested on: bamyardgrass; assay: Test B flood test barnyardgrass; assay type: in vivo, Echinochloa crus-galli
Outline: as §1

[5] = tested on: cocklebur; assay: Test B pre/postemergence cocklebur; assay type: in vivo, Xanthium strumarium
Outline: as §2

[6] = tested on: rice; assay: Test B flood test rice; assay type: in vivo, Oryza sativa; settings: for Rice plant response rating: Postemergence section (flood test species)
Outline: as §1

[7] = tested on: purple nutsedge; assay: Test B pre/postemergence purple nutsedge; assay type: in vivo, Cyperus rotundus
Outline: as §2

[8] = tested on: smallflower flatsedge; assay: Test B flood test smallflower flatsedge; assay type: in vivo, Cyperus difformis; settings: for S. Flatsedge plant response rating: Postemergence section (flood test species)
Outline: as §1

[9] = tested on: wheat; assay: Test B pre/postemergence wheat; assay type: in vivo, Triticum aestivum
Outline: as §2

[10] = tested on: wild oat; assay: Test B pre/postemergence wild oat; assay type: in vivo, Avena fatua
Outline: as §2

[11] = tested on: rape; assay: Test B pre/postemergence rape; assay type: in vivo, Brassica napus
Outline: as §2

[12] = tested on: sugar beet; assay: Test B pre/postemergence sugar beet; assay type: in vivo, Beta vulgaris
Outline: as §2

[13] = tested on: crabgrass; assay: Test B pre/postemergence crabgrass; assay type: in vivo, Digitaria sanguinalis
Outline: as §2

[14] = tested on: velvetleaf; assay: Test B pre/postemergence velvetleaf; assay type: in vivo, Abutilon theophrasti
Outline: as §2

[15] = tested on: corn; assay: Test B pre/postemergence corn; assay type: in vivo, Zea mays
Outline: as §2

[16] = tested on: blackgrass; assay: Test B pre/postemergence blackgrass; assay type: in vivo, Alopecurus myosuroides
Outline: as §2

[17] = Postemergence section (flood test species), Rate 500 g/ha, scale of 0 to 10 where 0 is no effect and 10 is complete control
[18] = Rate 62 g/ha, Postemergence (flood test species), scale of 0 to 10 where 0 is no effect and 10 is complete control
[19] = Rate 125 g/ha, Postemergence section (flood test species), scale 0 to 10, 0 is no effect, 10 is complete control
[20] = flood test species, listed under Postemergence, Rate 250 g/ha, scale 0 to 10, 0 is no effect, 10 is complete control
[21] = Postemergence, Rate 250 g/ha, scale 0 to 10, 0 is no effect, 10 is complete control
[22] = Postemergence, Rate 500 g/ha, scale of 0 to 10 where 0 is no effect and 10 is complete control
[23] = Preemergence, Rate 62 g/ha, scale 0 to 10 (0 no effect, 10 complete control)
[24] = Preemergence, Rate 125 g/ha, scale of 0 to 10 where 0 is no effect and 10 is complete control
[25] = Preemergence, Rate 250 g/ha, scale of 0 to 10 where 0 is no effect and 10 is complete control
[26] = Rate 62 g/ha, Postemergence, scale of 0 to 10 where 0 is no effect and 10 is complete control
[27] = Rate 125 g/ha, Postemergence, scale 0 to 10, 0 is no effect, 10 is complete control
[28] = Preemergence, Rate 250 g/ha, scale 0 to 10, 0 is no effect, 10 is complete control
[29] = Preemergence, Rate 500 g/ha, scale 0 to 10, 0 is no effect, 10 is complete control
[30] = Rate 500 g/ha, scale of 0 to 10 where 0 is no effect and 10 is complete control
[31] = Rate 125 g/ha, scale 0 to 10, 0 is no effect, 10 is complete control

## CC(C)N(C(=O)n1oc(=O)n(CCl)c1=O)c1ccc(Cl)cc1 [Compound 422]
[1]; [17]
  Ducksalad plant response rating: 0
[1]; [18]
  Ducksalad plant response rating: 0
[1]; [19]
  Ducksalad plant response rating: 0
[1]; [20]
  Plant response rating, Ducksalad: 0
[2]; [21]
  Plant response rating, B. signalgrass: 0
[2]; [22]
  B. signalgrass plant response rating: 0
[2]; [23]
  Plant response rating, B. signalgrass: 0
[2]; [24]
  Plant response rating, B. signalgrass: 0
[2]; [25]
  B. signalgrass plant response rating: 0
[2]; Preemergence, Rate 500 g/ha, scale of 0 to 10 where 0 is no effect and 10 is complete control
  B. signalgrass plant response rating: 0
[2]; [26]
  B. signalgrass plant response rating: 0
[2]; [27]
  B. signalgrass plant response rating: 0
[3]; [21]
  Plant response rating, Soybean: 3
[3]; [22]
  Soybean plant response rating: 4
[3]; [23]
  Plant response rating, Soybean: 0
[3]; [24]
  Plant response rating, Soybean: 0
[3]; [28]
  Soybean plant response rating: 0
[3]; [29]
  Soybean plant response rating: 0
[3]; [27]
  Soybean plant response rating: 3
[4]; [17]
  Barnyardgrass plant response rating: 0
[4]; [18]
  Barnyardgrass plant response rating: 0
[4]; [19]
  Barnyardgrass plant response rating: 0
[4]; [20]
  Plant response rating, Barnyardgrass: 0
[5]; [21]
  Plant response rating, Cocklebur: 0
[5]; [22]
  Cocklebur plant response rating: 0
[5]; [23]
  Plant response rating, Cocklebur: 0
[5]; [24]
  Plant response rating, Cocklebur: 0
[5]; [28]
  Cocklebur plant response rating: 0
[5]; [29]
  Cocklebur plant response rating: 0
[5]; [26]
  Cocklebur plant response rating: 0
[5]; [27]
  Cocklebur plant response rating: 0
[6]; [30]
  Rice plant response rating: 0
[6]; [31]
  Rice plant response rating: 0
[6]; [20]
  Plant response rating, Rice: 0
[7]; [21]
  Plant response rating, Nutsedge: 0
[7]; [22]
  Nutsedge plant response rating: 0
[7]; [23]
  Plant response rating, Nutsedge: 0
[7]; [24]
  Plant response rating, Nutsedge: 0
[7]; [28]
  Nutsedge plant response rating: 0
[7]; [29]
  Nutsedge plant response rating: 0
[7]; [27]
  Nutsedge plant response rating: 0
[8]; [30]
  S. Flatsedge plant response rating: 0
[8]; [31]
  S. Flatsedge plant response rating: 0
[8]; [20]
  Plant response rating, S. Flatsedge: 0
[9]; [22]
  Wheat plant response rating: 0
[9]; [23]
  Plant response rating, Wheat: 0
[9]; [24]
  Plant response rating, Wheat: 0
[9]; [28]
  Wheat plant response rating: 0
[9]; [29]
  Wheat plant response rating: 0
[9]; [27]
  Wheat plant response rating: 0
[10]; [22]
  Wild oats plant response rating: 0
[10]; [23]
  Plant response rating, Wild oats: 0
[10]; [24]
  Plant response rating, Wild oats: 0
[10]; [28]
  Wild oats plant response rating: 0
[10]; [29]
  Wild oats plant response rating: 3
[10]; [27]
  Wild oats plant response rating: 0
[11]; [21]
  Plant response rating, Rape: 0
[11]; [22]
  Rape plant response rating: 0
[11]; [23]
  Plant response rating, Rape: 0
[11]; [24]
  Plant response rating, Rape: 0
[11]; [28]
  Rape plant response rating: 0
[11]; [29]
  Rape plant response rating: 0
[11]; [27]
  Rape plant response rating: 0
[12]; [21]
  Plant response rating, Sugarbeets: 0
[12]; [22]
  Sugarbeets plant response rating: 0
[12]; [23]
  Plant response rating, Sugarbeets: 0
[12]; [24]
  Plant response rating, Sugarbeets: 0
[12]; [28]
  Sugarbeets plant response rating: 0
[12]; [29]
  Sugarbeets plant response rating: 0
[12]; [27]
  Sugarbeets plant response rating: 0
[13]; [21]
  Plant response rating, Crabgrass: 0
[13]; [22]
  Crabgrass plant response rating: 0
[13]; [23]
  Plant response rating, Crabgrass: 0
[13]; [24]
  Plant response rating, Crabgrass: 0
[13]; [28]
  Crabgrass plant response rating: 0
[13]; [29]
  Crabgrass plant response rating: 0
[13]; [26]
  Crabgrass plant response rating: 0
[13]; [27]
  Crabgrass plant response rating: 0
[14]; [21]
  Plant response rating, Velvetleaf: 0
[14]; [22]
  Velvetleaf plant response rating: 0
[14]; [23]
  Plant response rating, Velvetleaf: 0
[14]; [24]
  Plant response rating, Velvetleaf: 0
[14]; [28]
  Velvetleaf plant response rating: 0
[14]; [29]
  Velvetleaf plant response rating: 0
[14]; [27]
  Velvetleaf plant response rating: 0
[15]; [21]
  Plant response rating, Corn: 0
[15]; [22]
  Corn plant response rating: 0
[15]; [23]
  Plant response rating, Corn: 0
[15]; [24]
  Plant response rating, Corn: 0
[15]; [28]
  Corn plant response rating: 0
[15]; [29]
  Corn plant response rating: 0
[15]; [26]
  Corn plant response rating: 0
[15]; [27]
  Corn plant response rating: 0
[16]; [21]
  Plant response rating, Blackgrass: 0
[16]; [22]
  Blackgrass plant response rating: 0
[16]; [23]
  Plant response rating, Blackgrass: 0
[16]; [24]
  Plant response rating, Blackgrass: 0
[16]; [25]
  Blackgrass plant response rating: 0
[16]; [29]
  Blackgrass plant response rating: 0
[16]; [26]
  Blackgrass plant response rating: 0
[16]; [27]
  Blackgrass plant response rating: 0
